According to EP4789662A1, “POWDER FOR INHALATION” (Nagase Viita Co., Ltd., priority 2023, dated 2025):

Key:
[1] = system: chronic obstructive pulmonary disease (COPD); experiment: Animal test 1: OVA-induced COPD in rats, lung tissue and BALF infiltrating cells; type: in vivo; details: OVA-challenge; p.o. 60 mg/kg; BALF 24 h after OVA; Mean±S.E. (n=4)
Description: In order to evaluate the pharmacological effect of the mT/PL-RP (Example 1) via intratracheal administration, chronic obstructive pulmonary disease (COPD) was induced in rats, and the effect was compared with the effect via oral administration. Ovalbumin (OVA, Sigma-Aldrich) was intraperitoneally administered three times at seven-day intervals. Next day, the mT/PL-RP (Example 1) (5 mg-PL/kg) was intratracheally administered, or the PL (Comparative Example 2) (60 mg/kg) was orally administered. One hour after the administration, inflammation was caused by intratracheally administering micronized OVA powder to induce COPD. Twenty-four hours after the inflammation caused by OVA administration, the lungs were excised and bronchoalveolar lavage fluid (BALF) was collected. The lung tissue was stained with peroxidase by a standard method and subsequently observed. […] FIG. 8 and Table 6 show the result.

[2] = Animal test 2: amount of PL transferred into blood (pharmacokinetics); type: in vivo; details: rat, po, rats, p.o. 60 mg/kg, Mean±S.E. (n=4-5)
Description: The amount of PL transferred into blood was evaluated in oral administration and intratracheal administration. The blood PL concentrations up to 12 hours after administration were measured over time in a group of rats having undergone intratracheal administration of the mT/PL-RP (Example 1) (5 mg-PL/kg) and in a group of rats having undergone oral administration of the PL (Comparative Example 2) (60 mg/kg). FIG. 9 and Table 7 show the results.

- Cmax [2]: 250 ± 160 ng/mL
- Tmax [2]: 1.6 ± 0.6 h
SMILES: O=C(Nc1cccc2c(=O)cc(-c3nnn[nH]3)oc12)c1ccc(OCCCCc2ccccc2)cc1 [Crystalline PL, pranlukast]
- Inflammatory cells in BALF, Eosinophils [1]: 1.5 ± 0.6 × 10^4 cells/mL
- Inflammatory cells in BALF, Macrophages [1]: 3.1 ± 1.3 × 10^4 cells/mL
- Inflammatory cells in BALF, Neutrophils [1]: 11.5 ± 2.7 × 10^4 cells/mL
